Measurements as given in EP4660190A1, “PHARMACEUTICALLY ACCEPTABLE SALT OF COMPOUND AND PREPARATION METHOD THEREFOR” (Jiangsu Chia Tai Fenghai Pharmaceutical Co., Ltd., priority 2023, dated 2024).
Read-outs that look alike come from different tables or passages of the source. Marks after values point to notes of the source that are not given here.

Columns and labels:
[1] = tested on: Middle cerebral artery occlusion (MCAO) models of SD rats; test: Rat MCAO model, single-dose administration, TTC staining infarct size; assay type: in vivo; settings: 24 h; for Infarct Size (%): Mean±SD
Method: 3: Pharmacodynamic study in Rat Middle Cerebral Artery Occlusion (MCAO) Model (Single-Dose Administration) Middle cerebral artery occlusion (MCAO) models of SD rats were constructed using the suture occlusion method to evaluate the protection effect of the compound on neurons of rats after cerebral ischemia-reperfusion. After anaesthesia induction with 3.0% isoflurane in SD rats (240-270g), the operation was performed, and the right-side neck area was dissected to reveal the right common carotid artery (CCA), external carotid artery (ECA) and internal carotid artery (ICA). The ECA was ligated. The ICA was temporarily occluded. Sutures were threaded at both the proximal end and the distal end of CCA. The distal end was securely ligated, and a loosely tied knot was placed at the proximal end. A small incision was made between the two ligatures on the CCA. A No. 4-0 suture was inserted through the incision of CCA and slowly and gently pushed into the ICA. The threading was halted temporarily when reaching the artery clamp of ICA. The pre-ligation suture was further tightened. The artery clamp blocking the blood flow in the ICA was removed, allowing the suture occlusion to be advanced into the ICA until it entered the intracranial region. […] The insertion was stopped at the moment, and the time was recorded. The artery clamp on the CCA was removed and the incision was closed after no active bleeding was observed. The ischemic rats were placed at room temperature to keep their body temperature at 37°C, and anesthesia induction could be carried out 120min later. The suture was slowly and gradually withdrawn when the rats were maintained under anesthesia, so that the proximal end of the suture returned to the ECA, thereby initiating reperfusion of the middle cerebral artery. Animals were administered for a single dose immediately after reperfusion (within 10min). 3 groups were established, namely a model control group, a Compound (I) i.v. group (30mg/kg), and a Compound (I) p.o. group (60mg/kg). Animals were euthanized 24 h after ischemia reperfusion, and the brains were rapidly taken, frozen, and dissected for TTC staining. The normal tissues were rose-red after staining, and the infarcted tissues were white. The infarct size (%) percentage, calculated as the weight of infarcted tissues to the weight of the whole brain, is used to evaluate the degree of cerebral ischemic injury in rats.

[2] = tested on: SOD1 G93A ALS mice; test: SOD1-G93A ALS mice, survival; assay type: in vivo; settings: 40 mg/kg dose group
[3] = tested on: rat spinal cord injury model; test: Rat spinal cord injury model, Neurofilament 200 (NF200) expression; assay type: in vivo, Male SD rats; settings: mean±SD, n=6
[4] = tested on: MPTP-induced Parkinson's disease model mice; test: MPTP-induced mouse Parkinson's disease model, pole test; assay type: in vivo, C57 mice; settings: mean ± SD
[5] = tested on: rat spinal cord injury model; test: Rat spinal cord injury model, pathological changes
[6] = tested on: MPTP-induced Parkinson's disease model mice; test: MPTP-induced mouse Parkinson's disease model, grip strength test; settings: Before Modeling, mean ± SD
[7] = tested on: TDP-43-A315T transgenic mice of ALS model; test: TDP-43-A315T ALS mice, muscle tone test; assay type: in vivo; settings: Mean±SEM
[8] = Hygroscopicity test (Chinese Pharmacopoeia Section 9103); assay type: physicochemical; settings: 25°C, 80% relative humidity, 24 hours
[9] = tested on: MPTP-induced Parkinson's disease model mice; test: MPTP-induced mouse Parkinson's disease model, TH-positive fiber content in the striatum; assay type: in vivo, C57 mice; settings: four weeks, mean ± SD
[10] = tested on: MPTP-induced Parkinson's disease model mice; test: MPTP-induced mouse Parkinson's disease model, striatal dopamine (DOPA) detection; assay type: in vivo, C57 mice; settings: striatum, four weeks, mean ± SD
[11] = tested on: MPTP-induced Parkinson's disease model mice; test: MPTP-induced mouse Parkinson's disease model, TH-positive cell counts in the substantia nigra pars compacta; assay type: in vivo, C57 mice; settings: four weeks, mean ± SD
[12] = Pharmacokinetics of butylphthalide in rats (literature values); settings: rat; calculated based on the literature value of AUC0-inf (p.o. 60 mg/kg vs i.v. 10 mg/kg)
[13] = rat, value in literature, cited from earlier work
[14] = high dose 20 mg/kg daily, listed as Tromethamine salt from Example 10, 20 mg/kg
[15] = high dose 20 mg/kg daily, listed as tromethamine salt from Example 10, 20 mg/kg
[16] = low dose 5 mg/kg daily, listed as Tromethamine salt from Example 10, 5 mg/kg
[17] = low dose 5 mg/kg daily, listed as tromethamine salt from Example 10, 5 mg/kg

Which results are given for `CCC/C(O)=C1/C(=O)Oc2ccccc21` [Compound (I)]?
Cerebral infarction inhibition rate (%) ([1]; i.v. 30mg/kg single dose after reperfusion): 37.1%; Infarct Size (%) ([1]; i.v. 30mg/kg single dose after reperfusion, 30 mg/kg): 13.61±3.66 %; Infarct Size (%) ([1]; i.v. 30mg/kg single dose after reperfusion, listed as compound (I), 30 mg/kg): 13.61±3.66%; Cerebral infarction inhibition rate (%) ([1]; p.o. 60mg/kg single dose after reperfusion): 31.2%; Infarct Size (%) ([1]; p.o. 60mg/kg single dose after reperfusion, 60 mg/kg): 14.88±5.11 %; Infarct Size (%) ([1]; p.o. 60mg/kg single dose after reperfusion, listed as compound (I), 60 mg/kg): 14.88±5.11%

What does the source list for “(Z)-3-(1-hydroxybutenyl)benzofuran-2-one tromethamine salt [Example 10]”?
extension of survival [2]: approximately 15 days; Positive Count (number per field of view) ([3]; high dose 20 mg/kg): 30.3±7.4 number per field of view; Positive Count (number per field of view) ([3]; low dose 5 mg/kg): 22.5± 7.5 number per field of view; Pole test results ([4]; high dose 20 mg/kg daily, four weeks, Study Endpoint, listed as Tromethamine salt from Example 10, 20 mg/kg): 8.83 ± 1.77 s; Pole test results ([4]; high dose 20 mg/kg daily, four weeks, Study Endpoint, listed as tromethamine salt from Example 10, 20 mg/kg): 8.83 ± 1.77 s; Pole test results ([4]; high dose 20 mg/kg group, Before Modeling): 9.51 ± 1.66 s; Pole test results ([4]; low dose 5 mg/kg daily, four weeks, Study Endpoint, listed as Tromethamine salt from Example 10, 5 mg/kg): 9.67 ± 1.48 s; Pole test results ([4]; low dose 5 mg/kg daily, four weeks, Study Endpoint, listed as tromethamine salt from Example 10, 5 mg/kg): 9.67 ± 1.48 s; Pole test results ([4]; low dose 5 mg/kg group, Before Modeling): 9.40 ± 1.51 s; cases showing a reduction in lesions ([5]; 20 mg/kg dose group, spinal cord histopathology): 4 out of 6; pathological changes versus the model control group ([5]; low-dose group (5 mg/kg)): No significant differences; Grip Strength Test ([6]; high dose 20 mg/kg group): 278.44 ± 8.96 g; Grip Strength Test ([6]; low dose 5 mg/kg group): 276.97 ± 6.40 g; Muscle Tone ([7]; female mice, 20mg/kg, animal age 6 weeks): 165.4 ± 7.815 g; Muscle Tone ([7]; female mice, 20mg/kg, animal age 8 weeks): 190.2 ± 14.13 g; Muscle Tone ([7]; female mice, 20mg/kg, animal age 10 weeks): 153.7 ± 8.355 g; Muscle Tone ([7]; female mice, 20mg/kg, animal age 12 weeks): 159.4 ± 13.21 g; Muscle Tone ([7]; female mice, 20mg/kg, animal age 13 weeks): 149.8 ± 4.815 g; Muscle Tone ([7]; female mice, 20mg/kg, animal age 14 weeks): 150.9 ± 6.940 g; Muscle Tone ([7]; female mice, 20mg/kg, animal age 16 weeks): 159.5 ± 7.125 g; Muscle Tone ([7]; female mice, 40mg/kg p.o., animal age 6 weeks): 155.8 ± 3.677 g; Muscle Tone ([7]; female mice, 40mg/kg p.o., animal age 8 weeks): 190.6 ± 10.24 g; Muscle Tone ([7]; female mice, 40mg/kg p.o., animal age 10 weeks): 147.8 ± 7.822 g; Muscle Tone ([7]; female mice, 40mg/kg p.o., animal age 12 weeks): 154.3 ± 6.584 g; Muscle Tone ([7]; female mice, 40mg/kg p.o., animal age 13 weeks): 148.1 ± 4.851 g; Muscle Tone ([7]; female mice, 40mg/kg p.o., animal age 14 weeks): 161.6 ± 2.816 g; Muscle Tone ([7]; female mice, 40mg/kg p.o., animal age 16 weeks): 155.2 ± 3.339 g; Muscle Tone ([7]; male mice, 40mg/kg p.o., animal age 6 weeks): 155.4 ± 6.495 g; Muscle Tone ([7]; male mice, 40mg/kg p.o., animal age 8 weeks): 170.9 ± 6.777 g; Muscle Tone ([7]; male mice, 40mg/kg p.o., animal age 10 weeks): 155.6 ± 8.359 g; Muscle Tone ([7]; male mice, 40mg/kg p.o., animal age 12 weeks): 123.1 ± 18.21 g; Muscle Tone ([7]; male mice, 40mg/kg p.o., animal age 13 weeks): 120.8 ± 12.91 g; Muscle Tone ([7]; male mice, 40mg/kg p.o., animal age 14 weeks): 89.72 ± 19.04 g; Muscle Tone ([7]; male mice, 60mg/kg p.o., animal age 6 weeks): 175.7 ± 7.244 g; Muscle Tone ([7]; male mice, 60mg/kg p.o., animal age 8 weeks): 177.0 ± 5.555 g; Muscle Tone ([7]; male mice, 60mg/kg p.o., animal age 10 weeks): 155.93 ± 4.345 g; Muscle Tone ([7]; male mice, 60mg/kg p.o., animal age 12 weeks): 136.8 ± 16.00 g; Muscle Tone ([7]; male mice, 60mg/kg p.o., animal age 13 weeks): 149.8 ± 3.710 g; Muscle Tone ([7]; male mice, 60mg/kg p.o., animal age 14 weeks): 149.8 ± 2.045 g; hygroscopicity [8]: non-hygroscopic; weight gain percentage [8]: 0.0%; TH-Positive Fiber Content [9, 14]: 709627.56±100462.19^&#; TH-Positive Fiber Content [9, 15]: 709,627.56±100,462.19; TH-Positive Fiber Content [9, 16]: 526554.39±169680.75^&; TH-Positive Fiber Content [9, 17]: 526,554.39±169,680.75; DOPA [10, 14]: 2731.07 ± 868.18 ng/g; DOPA [10, 15]: 2731.07 ± 868.18 ng/g; DOPA [10, 16]: 837.82±372.19^& ng/g; DOPA [10, 17]: 837.82 ± 372.19 ng/g; TH-Positive Cell counts [11, 14]: 42.42±4.36^&#; TH-Positive Cell counts [11, 15]: 42.42±4.36; TH-Positive Cell counts [11, 16]: 31.22±5.97^&; TH-Positive Cell counts [11, 17]: 31.22±5.97

With `CCCCC1OC(=O)c2ccccc21` (stereo not shown) [Butylphthalide, butylphthalide, reference compound] as the compound, how does the F [12] read?
Its F is 16.6* %.

What about the AUC0-inf ([13]; i.v. 10 mg/kg) of the same compound?
The AUC0-inf was 8620.0 ng·h/mL.

What about the AUC0-t ([13]; i.v. 10 mg/kg) of the same compound?
The AUC0-t was 7230.0 ng·h/mL.

And the MRTinf ([13]; i.v. 10 mg/kg)?
The MRTinf was 2.4 h.

And the T1/2 ([13]; i.v. 10 mg/kg)?
The T1/2 was 2.2 h.

What about the AUC0-inf ([13]; p.o. 60 mg/kg) of the same compound?
The AUC0-inf was 8560.0 ng·h/mL.

And the AUC0-t ([13]; p.o. 60 mg/kg)?
Its AUC0-t is 7110.0 ng·h/mL.

What about the Cmax ([13]; p.o. 60 mg/kg) of the same compound?
Its Cmax is 2900.0 ng/mL.

What about the MRTinf ([13]; p.o. 60 mg/kg) of the same compound?
Its MRTinf is 3.8 h.

What about the T1/2 ([13]; p.o. 60 mg/kg) of the same compound?
Its T1/2 is 2.83 h.

What about the Tmax ([13]; p.o. 60 mg/kg) of the same compound?
Its Tmax is 42 min.
